Data as given in patent US9139523B2, “5-HT2B receptor antagonists” (Janssen Pharmaceutica, NV, priority 2010, dated 2015).
Where two headings read alike, the source gives them in different places.

What was measured:
Assay type in all cases: in vivo
[1] = Pharmacokinetic evaluation in the mouse; details: male CD1 mouse
Protocol: For intravenous (i.v.) administration, Compound (−)-17 was dissolved in saline containing 20% (w/v) hydroxy-propyl-beta-cyclodextrin (HPbCD) at a concentration of 0.25 mg/mL and administered (10 mL/kg) to male CD1 mice (n=3) as a bolus via a tail vein at a dose level of 2.5 mg/kg. For oral (p.o.) administration, Compound (−)-17 was dissolved in water containing 20% (w/v) HPbCD at a concentration of 0.5 mg/mL and administered (20 mL/kg) to male CD1 mice (n=3) via gavage at a dose level of 10 mg/kg. Blood samples were collected via a saphenous vein at serial time points up to 24 h after dosing. Plasma was obtained by centrifugation and stored at −20° C. prior to analysis. Analysis was performed using liquid chromatography (LC) with tandem mass spectrometric detection (MS/MS) in positive ion mode. Compound (−)-17 was eluted from a reversed phase column with a gradient of acetonitrile and water containing 0.1% (v/v) formic acid. At the time of analysis plasma samples (20 uL) were thawed and […] with 200 uL of acetonitrile and centrifuged. Aliquots of the supernatant were injected onto a reversed phase UPLC column and analysed via electrospray Mass Spectrometry. Calibration standards and quality controls, analysed before and after the study samples, were prepared in mouse plasma at the same time as […]. The accuracy (intra branch accuracy from independent QC samples) was between 85% and 115% of the nominal value over the entire concentration range. Non-compartmental pharmacokinetic analysis of the plasma concentration-time curves was performed using WinNonLin to provide estimates of the plasma clearance (CLp), volume of distribution at steady-state (Vss), terminal phase elimination half-life ([…]) and oral bioavailability (F), the results are summarised in Table 8.

[2] = Cardiovascular effects in the anaesthetized guinea-pig; details: female, plasma, iv, guinea pig, end of 5-min i.v. infusion; for concentration at 5 min: read-out: Median plasma level; for Cmax: read-out: Median plasma level (Cmax)
Protocol: (§1) Female guinea-pigs were anesthetized with sodium pentobarbital (66 mg/kg i.p.) followed by a continuous i.v. infusion of 6 mg/h of sodium pentobarbital and prepared for measurements of the surface electrocardiogram (ECG), heart rate and mean arterial blood pressure (see De Clerck et al, Fundam. Clin. Pharm.; 2002; 16: 125-140). Compound (−)-17 was dissolved in 20% hydroxypropyl-cyclodextrin with NaOH, HCl and mannitol in pyrogen-free water and administered intravenously (0.5 ml/kg) in increasing doses (0.16, 0.32, 0.64, 1.25, 2.5 and 5 mg/kg) over a period of 5 min at 15-min intervals. Plasma concentrations of Compound (−)-17 were measured at the end of each infusion. Corresponding volumes of vehicle were administered according to the same protocol in a second group of animals.

anesthetized guinea-pig = assay: as above
Protocol: as §1

[3] = guinea pig i.v. 0.16 mg/kg @ 2′
[4] = guinea pig i.v. 0.16 mg/kg @ 5′
[5] = guinea pig i.v. 0.16 mg/kg @ 15′
[6] = guinea pig i.v. 0.32 mg/kg @ 2′
[7] = guinea pig i.v. 0.32 mg/kg @ 5′
[8] = guinea pig i.v. 0.32 mg/kg @ 15′
[9] = guinea pig i.v. 0.64 mg/kg @ 2′
[10] = guinea pig i.v. 0.64 mg/kg @ 5′
[11] = guinea pig i.v. 0.64 mg/kg @ 15′
[12] = guinea pig i.v. 1.25 mg/kg @ 2′
[13] = guinea pig i.v. 1.25 mg/kg @ 5′
[14] = guinea pig i.v. 1.25 mg/kg @ 15′
[15] = guinea pig i.v. 2.5 mg/kg @ 15′

Compound: COc1cc(N)c(Cl)cc1C(=O)NC1CCN(CCCOc2ccc(F)cc2)CC1(F)F (single isomer, unassigned) [Compound (−)-17, 4-amino-5-chloro-N-{3,3-difluoro-1-[3-(4-fluorophenoxy)-propyl]-piperidin-4-yl}-2-methoxybenzamide]
- F ([1]; p.o. 10 mg/kg vs i.v. 2.5 mg/kg): 52%
- half-life ([1]; plasma, intravenous, 2.5 mg/kg, read-out: t½ (converted)): 84 ± 12 min
- clearance ([1]; plasma, iv, i.v. 2.5 mg/kg): 20 ± 6 mL/min/kg
- Vd ([1]; plasma, iv, i.v. 2.5 mg/kg, read-out: Vss): 1.9 ± 0.6 L/kg
- AUC(0-t) ([1]; plasma, po, p.o. 10 mg/kg): 4440 ± 1090 ng·h/mL
- Cmax ([1]; plasma, po, p.o. 10 mg/kg): 1580 ± 165 ng/mL
- Tmax ([1]; plasma, po, p.o. 10 mg/kg): 30 min
- concentration at 5 min ([2]; dose 0.16 mg/kg (increasing doses, 15-min intervals)): 398 ng/mL
- concentration at 5 min ([2]; dose 0.32 mg/kg (increasing doses, 15-min intervals)): 873 ng/mL
- concentration at 5 min ([2]; dose 0.64 mg/kg (increasing doses, 15-min intervals)): 1820 ng/mL
- concentration at 5 min ([2]; dose 1.25 mg/kg (increasing doses, 15-min intervals)): 3330 ng/mL
- Cmax ([2]; dose 2.5 mg/kg (increasing doses, 15-min intervals)): 6320 ng/mL
- Cmax ([2]; dose 5 mg/kg (increasing doses, 15-min intervals; total dose 9.87 mg/kg)): 12000 ng/mL
- HR, percentage change relative to baseline (anesthetized guinea-pig; [3]): −1%
- MBP, percentage change relative to baseline (anesthetized guinea-pig; [3]): 4%
- PQ, percentage change relative to baseline (anesthetized guinea-pig; [3]): 0%
- QRS, percentage change relative to baseline (anesthetized guinea-pig; [3]): −2%
- QT, percentage change relative to baseline (anesthetized guinea-pig; [3]): 0%
- QTc B, percentage change relative to baseline (anesthetized guinea-pig; [3]): −1%
- HR, percentage change relative to baseline (anesthetized guinea-pig; [4]): 0%
- PQ, percentage change relative to baseline (anesthetized guinea-pig; [4]): 1%
- QRS, percentage change relative to baseline (anesthetized guinea-pig; [4]): −2%
- QT, percentage change relative to baseline (anesthetized guinea-pig; [4]): −1%
- QTc B, percentage change relative to baseline (anesthetized guinea-pig; [4]): −1%
- HR, percentage change relative to baseline (anesthetized guinea-pig; [5]): −2%
- MBP, percentage change relative to baseline (anesthetized guinea-pig; [5]): −3%
- PQ, percentage change relative to baseline (anesthetized guinea-pig; [5]): 4%
- QRS, percentage change relative to baseline (anesthetized guinea-pig; [5]): 0%
- QT, percentage change relative to baseline (anesthetized guinea-pig; [5]): 1%
- QTc B, percentage change relative to baseline (anesthetized guinea-pig; [5]): 1%
- HR, percentage change relative to baseline (anesthetized guinea-pig; [6]): −1%
- MBP, percentage change relative to baseline (anesthetized guinea-pig; [6]): 6%
- PQ, percentage change relative to baseline (anesthetized guinea-pig; [6]): 2%
- QRS, percentage change relative to baseline (anesthetized guinea-pig; [6]): −2%
- QT, percentage change relative to baseline (anesthetized guinea-pig; [6]): 0%
- QTc B, percentage change relative to baseline (anesthetized guinea-pig; [6]): 1%
- HR, percentage change relative to baseline (anesthetized guinea-pig; [7]): −4%
- MBP, percentage change relative to baseline (anesthetized guinea-pig; [7]): 2%
- PQ, percentage change relative to baseline (anesthetized guinea-pig; [7]): 4%
- QRS, percentage change relative to baseline (anesthetized guinea-pig; [7]): 0%
- QT, percentage change relative to baseline (anesthetized guinea-pig; [7]): 3%
- QTc B, percentage change relative to baseline (anesthetized guinea-pig; [7]): 1%
- HR, percentage change relative to baseline (anesthetized guinea-pig; [8]): −4%
- MBP, percentage change relative to baseline (anesthetized guinea-pig; [8]): −3%
- PQ, percentage change relative to baseline (anesthetized guinea-pig; [8]): 4%
- QRS, percentage change relative to baseline (anesthetized guinea-pig; [8]): 0%
- QT, percentage change relative to baseline (anesthetized guinea-pig; [8]): 4%
- QTc B, percentage change relative to baseline (anesthetized guinea-pig; [8]): 3%
- HR, percentage change relative to baseline (anesthetized guinea-pig; [9]): −5%
- MBP, percentage change relative to baseline (anesthetized guinea-pig; [9]): 6%
- PQ, percentage change relative to baseline (anesthetized guinea-pig; [9]): 5%
- QRS, percentage change relative to baseline (anesthetized guinea-pig; [9]): 0%
- QT, percentage change relative to baseline (anesthetized guinea-pig; [9]): 7%
- QTc B, percentage change relative to baseline (anesthetized guinea-pig; [9]): 4%
- HR, percentage change relative to baseline (anesthetized guinea-pig; [10]): −2%
- MBP, percentage change relative to baseline (anesthetized guinea-pig; [10]): 13%
- PQ, percentage change relative to baseline (anesthetized guinea-pig; [10]): 5%
- QRS, percentage change relative to baseline (anesthetized guinea-pig; [10]): −5%
- QT, percentage change relative to baseline (anesthetized guinea-pig; [10]): 5%
- QTc B, percentage change relative to baseline (anesthetized guinea-pig; [10]): 2%
- HR, percentage change relative to baseline (anesthetized guinea-pig; [11]): −5%
- MBP, percentage change relative to baseline (anesthetized guinea-pig; [11]): −5%
- PQ, percentage change relative to baseline (anesthetized guinea-pig; [11]): 4%
- QRS, percentage change relative to baseline (anesthetized guinea-pig; [11]): −3%
- QT, percentage change relative to baseline (anesthetized guinea-pig; [11]): 8%
- QTc B, percentage change relative to baseline (anesthetized guinea-pig; [11]): 4%
- HR, percentage change relative to baseline (anesthetized guinea-pig; [12]): −7%
- MBP, percentage change relative to baseline (anesthetized guinea-pig; [12]): 4%
- PQ, percentage change relative to baseline (anesthetized guinea-pig; [12]): 5%
- QRS, percentage change relative to baseline (anesthetized guinea-pig; [12]): −2%
- QT, percentage change relative to baseline (anesthetized guinea-pig; [12]): 8%
- QTc B, percentage change relative to baseline (anesthetized guinea-pig; [12]): 4%
- HR, percentage change relative to baseline (anesthetized guinea-pig; [13]): −7%
- MBP, percentage change relative to baseline (anesthetized guinea-pig; [13]): 15%
- PQ, percentage change relative to baseline (anesthetized guinea-pig; [13]): 6%
- QRS, percentage change relative to baseline (anesthetized guinea-pig; [13]): 0%
- QT, percentage change relative to baseline (anesthetized guinea-pig; [13]): 6%
- QTc B, percentage change relative to baseline (anesthetized guinea-pig; [13]): 2%
- HR, percentage change relative to baseline (anesthetized guinea-pig; [14]): 0%
- MBP, percentage change relative to baseline (anesthetized guinea-pig; [14]): 9%
- PQ, percentage change relative to baseline (anesthetized guinea-pig; [14]): 6%
- QRS, percentage change relative to baseline (anesthetized guinea-pig; [14]): −3%
- QT, percentage change relative to baseline (anesthetized guinea-pig; [14]): 2%
- QTc B, percentage change relative to baseline (anesthetized guinea-pig; [14]): 3%
- HR, percentage change relative to baseline (anesthetized guinea-pig; guinea pig i.v. 2.5 mg/kg @ 2′): −5%
- PQ, percentage change relative to baseline (anesthetized guinea-pig; guinea pig i.v. 2.5 mg/kg @ 2′): 7%
- QRS, percentage change relative to baseline (anesthetized guinea-pig; guinea pig i.v. 2.5 mg/kg @ 2′): −3%
- QT, percentage change relative to baseline (anesthetized guinea-pig; guinea pig i.v. 2.5 mg/kg @ 2′): 6%
- QTc B, percentage change relative to baseline (anesthetized guinea-pig; guinea pig i.v. 2.5 mg/kg @ 2′): 4%
- HR, percentage change relative to baseline (anesthetized guinea-pig; guinea pig i.v. 2.5 mg/kg @ 5′): −6%
- MBP, percentage change relative to baseline (anesthetized guinea-pig; guinea pig i.v. 2.5 mg/kg @ 5′): 21%
- PQ, percentage change relative to baseline (anesthetized guinea-pig; guinea pig i.v. 2.5 mg/kg @ 5′): 7%
- QRS, percentage change relative to baseline (anesthetized guinea-pig; guinea pig i.v. 2.5 mg/kg @ 5′): −3%
- QT, percentage change relative to baseline (anesthetized guinea-pig; guinea pig i.v. 2.5 mg/kg @ 5′): 6%
- QTc B, percentage change relative to baseline (anesthetized guinea-pig; guinea pig i.v. 2.5 mg/kg @ 5′): 3%
- HR, percentage change relative to baseline (anesthetized guinea-pig; [15]): −4%
- MBP, percentage change relative to baseline (anesthetized guinea-pig; [15]): 8%
- PQ, percentage change relative to baseline (anesthetized guinea-pig; [15]): 8%
- QRS, percentage change relative to baseline (anesthetized guinea-pig; [15]): 0%
- QT, percentage change relative to baseline (anesthetized guinea-pig; [15]): 6%
- QTc B, percentage change relative to baseline (anesthetized guinea-pig; [15]): 5%
- HR, percentage change relative to baseline (anesthetized guinea-pig; guinea pig i.v. 5 mg/kg @ 2′): −3%
- PQ, percentage change relative to baseline (anesthetized guinea-pig; guinea pig i.v. 5 mg/kg @ 2′): 6%
- QRS, percentage change relative to baseline (anesthetized guinea-pig; guinea pig i.v. 5 mg/kg @ 2′): −2%
- QT, percentage change relative to baseline (anesthetized guinea-pig; guinea pig i.v. 5 mg/kg @ 2′): 7%
- QTc B, percentage change relative to baseline (anesthetized guinea-pig; guinea pig i.v. 5 mg/kg @ 2′): 5%
- HR, percentage change relative to baseline (anesthetized guinea-pig; guinea pig i.v. 5 mg/kg @ 5′): −3%
- PQ, percentage change relative to baseline (anesthetized guinea-pig; guinea pig i.v. 5 mg/kg @ 5′): 6%
- QRS, percentage change relative to baseline (anesthetized guinea-pig; guinea pig i.v. 5 mg/kg @ 5′): 0%
- QT, percentage change relative to baseline (anesthetized guinea-pig; guinea pig i.v. 5 mg/kg @ 5′): 3%
- QTc B, percentage change relative to baseline (anesthetized guinea-pig; guinea pig i.v. 5 mg/kg @ 5′): 2%
- effect on heart rate, duration of PQ, QRS, QT and QTcB intervals, ECG morphology (anesthetized guinea-pig; guinea pig, 0.16 up to 5 mg/kg i.v., relative to vehicle): no relevant effect
- mean arterial blood pressure (anesthetized guinea-pig; guinea pig, from 2.5 mg/kg i.v. onwards): started to increase
